The results in this text go back to US9562035B2, “Benzamide derivative useful as FASN inhibitors for the treatment of cancer” (Janssen Pharmaceutica NV, priority 2013, dated 2017).

SMILES strings stand for the structures.

Test [1] relates to A2780 ovarian cells. The test can be described thus: A2780 Ovarian Cell Proliferation Assay in Lipid Reduced Medium, without Palmitate. In kind it is cell-based. As to conditions: Homo sapiens, A2780; lipid reduced medium, without palmitate, 96 h, MTT; read-out: Proliferation A2780 w/o Palmitate pIC50 (converted). Put shortly: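 A2780 cells were seeded in 10% FCS medium and switched next day to 10% lipid-reduced serum without palmitate. Compounds at 0.01–30 μM were added with 0.2% DMSO, 0.2% fatty-acid-free BSA and 0.25% ethanol final. After 96 h, MTT absorbance at 544 nm was normalized to plate controls, and IC50/pIC50 came from a 4-parameter logistic fit.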

Test [2] has as its target T1, hFASN enzyme (full length) (Homo sapiens, UniProt P49327).
T1 construct: 10 μL hFASN enzyme (full length, 300 ng, purified in house); made in house
The test can be described thus: Fatty Acid Synthase (FASN) Inhibition Scintillation Proximity Assay. In kind it is biochemical. As to conditions: for IC50: mean where tested more than once, ~ = standard error of pIC50 larger than 0.5; for inhibition at 10 µM: read-out: FASN % Effect @1E−05M. The method, boiled down:
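Eight compound concentrations (0.01–30 μM) tested in pH 7.5 phosphate buffer with DTT; human full-length enzyme converted [3H]-acetyl-CoA plus malonyl-CoA, with NADPH, over 60 min at room temperature. Hydrophobic [3H]-palmitate detected by bead proximity scintillation imaging; control-normalised data fitted for IC50/pIC50.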
Background: In a scintillation proximity assay essentially only radioactivity close to the scintillant gives light.

Test [3] deals with A2780 ovarian cells. The test is described as follows: A2780 Ovarian Cell Proliferation Assay in Lipid Reduced Medium, with Palmitate (control). As to conditions: Homo sapiens, A2780; lipid reduced medium, 25 μM palmitate, 96 h, MTT; read-out: Proliferation A2780 with Palmitate pIC50 (converted). It counts as cell-based. Put shortly: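 Read-out was MTT absorbance at 544 nm after 96 h at 37 °C. Cells grown overnight in RPMI1640/10% FCS were moved to 10% lipid-reduced serum with compound plus palmitate (final 25 μM, 0.2% fatty-acid-free BSA, 0.2% DMSO). IC50 came from least-squares curve fitting, expressed as −log(IC50).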

The target in test [4] is T2, FASN Keto-reductase Domain (Homo sapiens, UniProt P49327).
T2 construct: 10 μL hFASN enzyme (full length, 300 ng, purified in house) and 360 μM NADPH; made in house
T2 sequence (P49327 whole entry, the tested form may be a part): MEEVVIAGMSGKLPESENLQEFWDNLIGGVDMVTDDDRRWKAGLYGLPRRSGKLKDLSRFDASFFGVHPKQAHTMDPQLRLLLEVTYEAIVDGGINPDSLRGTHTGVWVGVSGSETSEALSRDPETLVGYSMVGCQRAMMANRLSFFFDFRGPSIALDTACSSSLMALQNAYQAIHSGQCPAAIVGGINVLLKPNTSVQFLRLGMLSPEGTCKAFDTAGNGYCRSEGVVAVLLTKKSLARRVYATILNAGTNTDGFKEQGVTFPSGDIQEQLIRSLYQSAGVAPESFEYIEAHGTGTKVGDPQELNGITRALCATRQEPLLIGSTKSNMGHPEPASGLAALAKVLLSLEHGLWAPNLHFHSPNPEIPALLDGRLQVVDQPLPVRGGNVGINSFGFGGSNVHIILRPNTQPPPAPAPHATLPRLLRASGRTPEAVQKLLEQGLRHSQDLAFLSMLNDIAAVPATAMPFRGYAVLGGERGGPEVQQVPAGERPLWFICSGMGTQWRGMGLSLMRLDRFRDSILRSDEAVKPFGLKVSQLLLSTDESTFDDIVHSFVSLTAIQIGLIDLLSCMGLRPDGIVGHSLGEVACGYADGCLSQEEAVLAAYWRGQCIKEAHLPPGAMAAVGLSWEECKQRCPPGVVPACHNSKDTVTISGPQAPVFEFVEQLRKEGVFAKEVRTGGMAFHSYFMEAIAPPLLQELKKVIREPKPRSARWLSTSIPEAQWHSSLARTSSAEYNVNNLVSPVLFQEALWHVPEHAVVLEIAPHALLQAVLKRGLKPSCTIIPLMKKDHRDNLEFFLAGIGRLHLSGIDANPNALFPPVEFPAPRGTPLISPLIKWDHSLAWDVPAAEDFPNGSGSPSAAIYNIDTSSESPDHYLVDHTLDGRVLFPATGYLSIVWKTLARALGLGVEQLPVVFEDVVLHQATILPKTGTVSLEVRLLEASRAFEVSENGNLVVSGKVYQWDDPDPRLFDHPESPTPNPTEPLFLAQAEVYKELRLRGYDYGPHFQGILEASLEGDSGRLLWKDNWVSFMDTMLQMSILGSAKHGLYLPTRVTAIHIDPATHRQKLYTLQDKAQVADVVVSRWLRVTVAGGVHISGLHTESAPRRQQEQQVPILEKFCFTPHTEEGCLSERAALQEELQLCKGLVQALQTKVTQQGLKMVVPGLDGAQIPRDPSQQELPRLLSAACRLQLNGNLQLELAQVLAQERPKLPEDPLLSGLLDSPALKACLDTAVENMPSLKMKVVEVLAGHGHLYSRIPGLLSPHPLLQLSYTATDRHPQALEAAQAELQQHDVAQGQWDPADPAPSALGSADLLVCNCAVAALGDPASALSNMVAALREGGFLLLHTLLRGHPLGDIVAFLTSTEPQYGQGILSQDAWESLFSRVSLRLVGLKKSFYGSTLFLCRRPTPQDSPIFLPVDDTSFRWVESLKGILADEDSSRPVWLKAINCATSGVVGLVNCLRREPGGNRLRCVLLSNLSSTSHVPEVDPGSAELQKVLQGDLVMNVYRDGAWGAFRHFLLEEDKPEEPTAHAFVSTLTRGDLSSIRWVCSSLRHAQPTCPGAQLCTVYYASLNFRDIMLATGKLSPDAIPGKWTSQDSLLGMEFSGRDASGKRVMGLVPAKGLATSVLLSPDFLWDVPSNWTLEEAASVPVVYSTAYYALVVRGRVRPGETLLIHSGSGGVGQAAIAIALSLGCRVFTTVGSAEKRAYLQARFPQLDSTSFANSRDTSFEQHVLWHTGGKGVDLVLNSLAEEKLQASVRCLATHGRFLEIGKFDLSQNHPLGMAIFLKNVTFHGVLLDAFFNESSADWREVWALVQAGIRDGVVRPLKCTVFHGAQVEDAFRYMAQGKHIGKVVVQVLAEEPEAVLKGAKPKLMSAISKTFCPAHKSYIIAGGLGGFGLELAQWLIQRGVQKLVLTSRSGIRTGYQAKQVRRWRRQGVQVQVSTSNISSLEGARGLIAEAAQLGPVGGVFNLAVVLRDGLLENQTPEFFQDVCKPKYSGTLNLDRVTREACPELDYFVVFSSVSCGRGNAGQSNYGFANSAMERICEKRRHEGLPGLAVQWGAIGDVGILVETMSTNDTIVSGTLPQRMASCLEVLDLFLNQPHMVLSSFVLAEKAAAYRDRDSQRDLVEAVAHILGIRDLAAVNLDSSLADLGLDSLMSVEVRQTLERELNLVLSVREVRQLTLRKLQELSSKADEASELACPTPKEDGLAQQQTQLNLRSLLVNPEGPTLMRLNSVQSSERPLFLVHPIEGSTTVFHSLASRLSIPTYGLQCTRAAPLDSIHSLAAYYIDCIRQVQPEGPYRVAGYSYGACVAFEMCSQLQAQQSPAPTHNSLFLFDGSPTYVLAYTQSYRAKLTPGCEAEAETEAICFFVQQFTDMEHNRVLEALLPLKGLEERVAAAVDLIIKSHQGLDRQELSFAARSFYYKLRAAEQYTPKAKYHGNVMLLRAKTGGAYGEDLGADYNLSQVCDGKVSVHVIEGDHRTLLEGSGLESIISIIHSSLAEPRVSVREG
The test can be described thus: Fatty Acid Synthase Keto-Reductase Domain (FASN KR) Inhibition. It counts as biochemical. Conditions: mean where tested more than once; read-out: FASN K-R Domain pIC50 (converted). Put shortly:
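Keto-reductase activity followed as NADPH consumption (A340 drop between 0 and 20 min, room temperature) using in-house full-length hFASN, 360 μM NADPH and ethyl acetoacetate substrate (180 mM stock), pH 7.5 phosphate buffer.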

T1 sequence (P49327 whole entry): as the sequence (P49327 whole entry, the tested form may be a part) above

`CCCCCN1CCC(C(=O)Nc2cc(C(=O)N3CCC(c4ccc(-c5cnn(C)c5)cc4)CC3)ccc2C)C1` (stereo not drawn) [Compound 215, N-(2-methyl-5-(4-(4-(1-methyl-1H-pyrazol-4-yl)phenyl)piperidine-1-carbonyl)phenyl)-1-pentylpyrrolidine-3-carboxamide]: the IC50 in the test with A2780 ovarian cells [1] was 191 nM; in test [2] it was 105 nM; in the test with A2780 ovarian cells [3], 9330 nM; in test [4], 309 nM. In addition, the inhibition at 10 µM in test [2] is 107%.

In the case of `COc1ccc(C(=O)Nc2cc(C(=O)N3CCC(c4ccc(-c5cnn(C)c5)cc4)CC3)ccc2C)cc1O` [Compound 135, 3-hydroxy-4-methoxy-N-(2-methyl-5-(4-(4-(1-methyl-1H-pyrazol-4-yl)phenyl)piperidine-1-carbonyl)phenyl)benzamide], the IC50 was 87.1 nM with A2780 ovarian cells [1], 16.2 nM in test [2], over 10000 nM in the test with A2780 ovarian cells [3] and 55 nM in test [4]. The inhibition at 10 µM in test [2] amounted to 107%.

On to `Cc1ccc(C(=O)N2CCC(c3ccc(-c4cnn(C)c4)cc3)CC2)cc1NC(=O)c1cnc(Cl)nc1` [Compound 136, 2-chloro-N-(2-methyl-5-(4-(4-(1-methyl-1H-pyrazol-4-yl)phenyl)piperidine-1-carbonyl)phenyl)pyrimidine-5-carboxamide], for which the IC50 with A2780 ovarian cells [1] was 1230 nM; in test [2], 30.9 nM; in the test with A2780 ovarian cells [3] it was about 5130 nM; in test [4], 69.2 nM. For the same compound, in test [2], the inhibition at 10 µM came to 105%.

Take `Cc1ccc(C(=O)N2CCC(c3ccc4c(c3)CC(=O)N4)CC2)cc1NC(=O)c1ccc(Cl)nc1` [Compound 50, 6-chloro-N-(2-methyl-5-(4-(2-oxoindolin-5-yl)piperidine-1-carbonyl)phenyl)nicotinamide]: the IC50 was 1230 nM in the test with A2780 ovarian cells [1], 309 nM in test [2], over 10000 nM with A2780 ovarian cells [3] and 603 nM in test [4]. In addition, in test [2], the inhibition at 10 µM was found to be 93%.

Regarding `Cc1ccc(C(=O)N2CCC(c3ncc(-c4cnn(C)c4)cn3)CC2)cc1NC(=O)c1ccc(NC(C)C)nc1` [Compound 258, 6-(isopropylamino)-N-(2-methyl-5-(4-(5-(1-methyl-1H-pyrazol-4-yl)pyrimidin-2-yl)piperidine-1-carbonyl)phenyl)nicotinamide], the IC50 with A2780 ovarian cells [1] was 389 nM; in test [2], 245 nM; in the test with A2780 ovarian cells [3], over 10000 nM; in test [4], 1230 nM. Further, the inhibition at 10 µM in test [2] came to 99%.

`CC(C)Nc1ccc(C(=O)Nc2cc(C(=O)N3CC(c4ccc(-c5ccnc6ccccc56)cc4)C3)ccc2Cl)cn1` [Compound 63, N-(2-chloro-5-(3-(4-(quinolin-4-yl)phenyl)azetidine-1-carbonyl)phenyl)-6-(isopropylamino)nicotinamide]: the IC50 is 53.7 nM in the test with A2780 ovarian cells [1], 27.5 nM in test [2], 3020 nM in the test on A2780 ovarian cells [3] and 24.5 nM in test [4]. Further, the inhibition at 10 µM in test [2] came to 100%.

With `Cc1ccc(C(=O)N2CCC(c3ccc(-c4cnn(CC5CCC5)c4)cc3)CC2)cc1NC(=O)c1ccc(NC(C)C)nc1` [Compound 221, N-(5-(4-(4-(1-(cyclobutylmethyl)-1H-pyrazol-4-yl)phenyl)piperidine-1-carbonyl)-2-methylphenyl)-6-(isopropylamino)nicotinamide], the IC50 is 91.2 nM with A2780 ovarian cells [1], 75.9 nM in test [2], 5010 nM in the test on A2780 ovarian cells [3] and 245 nM in test [4]. Moreover, the inhibition at 10 µM in test [2] was 109%.

As for `Cc1ccc(C(=O)N2CCC(c3ccc4c(c3)NC(=O)CC4)CC2)cc1NC(=O)c1ccc(Cl)nc1` [Compound 23, 6-chloro-N-(2-methyl-5-(4-(2-oxo-1,2,3,4-tetrahydroquinolin-7-yl)piperidine-1-carbonyl)phenyl)nicotinamide], the IC50 in the test with A2780 ovarian cells [1] was 1120 nM; in test [2], 589 nM; with A2780 ovarian cells [3], about 10000 nM; in test [4], 1170 nM. Besides, the inhibition at 10 µM in test [2] was 93%.

For `Cc1ccc(C(=O)N2CCC(c3ccc4ccncc4c3)CC2)cc1NC(=O)c1ccc(Cl)nc1` [Compound 37, 6-chloro-N-(5-(4-(isoquinolin-7-yl)piperidine-1-carbonyl)-2-methylphenyl)nicotinamide], the IC50 with A2780 ovarian cells [1] was 617 nM; in test [2], 537 nM; with A2780 ovarian cells [3], 3390 nM; in test [4] it was 562 nM. Besides, the inhibition at 10 µM in test [2] worked out at 94%.

In the case of `Cc1ccc(C(=O)N2CCC(c3ccc4[nH]c(=O)sc4c3)CC2)cc1NC(=O)c1ccc(NC(C)C)nc1` [Compound 49, 6-(isopropylamino)-N-(2-methyl-5-(4-(2-oxo-2,3-dihydrobenzo[d]thiazol-6-yl)piperidine-1-carbonyl)phenyl)nicotinamide], the IC50 was 813 nM in the test with A2780 ovarian cells [1], 120 nM in test [2], over 10000 nM in the test on A2780 ovarian cells [3] and 229 nM in test [4]. For the same compound, the inhibition at 10 µM in test [2] is 97%.

As for `COc1ccc(-c2ccc(C3CCN(C(=O)c4ccc(C)c(NC(=O)c5ccc(NC(C)C)nc5)c4)CC3)cc2)cc1` [Compound 199, 6-(isopropylamino)-N-(5-(4-(4′-methoxy-[1,1′-biphenyl]-4-yl)piperidine-1-carbonyl)-2-methylphenyl)nicotinamide], the IC50 in the test with A2780 ovarian cells [1] was 562 nM; in test [2] it was about 676 nM; in the test on A2780 ovarian cells [3], 617 nM; in test [4] it was 724 nM. Also, the inhibition at 10 µM in test [2] was 59%.

In the case of `Cc1ccc(C(=O)N2CC(c3ccc(-c4ccnn4C)cc3)C2)cc1NC(=O)c1ccc2ccccc2n1` [Compound 55, N-(2-methyl-5-(3-(4-(1-methyl-1H-pyrazol-5-yl)phenyl)azetidine-1-carbonyl)phenyl)quinoline-2-carboxamide], the IC50 in the test with A2780 ovarian cells [1] is about 77.6 nM; in test [2], 437 nM; in the test on A2780 ovarian cells [3] it was about 85.1 nM; in test [4] it was 513 nM. In addition, the inhibition at 10 µM in test [2] was found to be 86%.

Consider `Cc1ccc(C(=O)N2CCC(c3ccc(-c4cnn(C)c4)cc3)CC2)cc1NC(=O)c1ccc(Cl)cc1` [Compound #100, 4-chloro-N-(2-methyl-5-(4-(4-(1-methyl-1H-pyrazol-4-yl)phenyl)piperidine-1-carbonyl)phenyl)benzamide], for which the IC50 with A2780 ovarian cells [1] is 93.3 nM; in test [2], 16.2 nM; in the test with A2780 ovarian cells [3] it was over 10000 nM; in test [4] it was 44.7 nM. Further, the inhibition at 10 µM in test [2] turned out to be 111%.

Take `Cc1ccc(C(=O)N2CC(c3ccc(-c4ccnc5ccccc45)cc3)C2)cc1NC(=O)c1ccc(NC(C)C)nc1` [Compound 39, 6-(isopropylamino)-N-(2-methyl-5-(3-(4-(Quinolin-4-yl)phenyl)azetidine-1-carbonyl)phenyl)nicotinamide]: the IC50 with A2780 ovarian cells [1] was 33.9 nM; in test [2], 30.2 nM; in the test on A2780 ovarian cells [3], 5500 nM; in test [4], 16.6 nM. For the same compound, the inhibition at 10 µM in test [2] was 111%.

`Cc1ccc(C(=O)N2CCC(c3ccc(-c4cnn(C)c4)cc3)C2)cc1NC(=O)c1ccc(NC(C)C)nc1` (stereo not drawn) [Compound 237, 6-(isopropylamino)-N-(2-methyl-5-(3-(4-(1-methyl-1H-pyrazol-4-yl)phenyl)pyrrolidine-1-carbonyl)phenyl)nicotinamide]: the IC50 with A2780 ovarian cells [1] is 166 nM; in test [2], 129 nM; with A2780 ovarian cells [3] it was over 10000 nM; in test [4], 380 nM. Further, in test [2], the inhibition at 10 µM was found to be 101%.
